# Data reported in patent publication US7678787B2, “Pyrrolobenzodiazepine pyridine carboxamides and derivatives as follicle-stimulating hormone receptor antagonists” (Wyeth, priority 2005, dated 2010).
# Where two headings read alike, the source gives them in different places.
# Experiments:
# human FSH receptor [1] = target: T1, human FSH receptor (Homo sapiens, UniProt P23945); assay: FSH receptor-dependent CRE-luciferase reporter gene assay (CHO FSH-R 6CRE-Luc cells); type: cell-based
# T1 construct: host or cells: CHO-K1 (CHO FSH-R 6CRE-Luc, 1D7 cells)
# T1 sequence (P23945 18-695): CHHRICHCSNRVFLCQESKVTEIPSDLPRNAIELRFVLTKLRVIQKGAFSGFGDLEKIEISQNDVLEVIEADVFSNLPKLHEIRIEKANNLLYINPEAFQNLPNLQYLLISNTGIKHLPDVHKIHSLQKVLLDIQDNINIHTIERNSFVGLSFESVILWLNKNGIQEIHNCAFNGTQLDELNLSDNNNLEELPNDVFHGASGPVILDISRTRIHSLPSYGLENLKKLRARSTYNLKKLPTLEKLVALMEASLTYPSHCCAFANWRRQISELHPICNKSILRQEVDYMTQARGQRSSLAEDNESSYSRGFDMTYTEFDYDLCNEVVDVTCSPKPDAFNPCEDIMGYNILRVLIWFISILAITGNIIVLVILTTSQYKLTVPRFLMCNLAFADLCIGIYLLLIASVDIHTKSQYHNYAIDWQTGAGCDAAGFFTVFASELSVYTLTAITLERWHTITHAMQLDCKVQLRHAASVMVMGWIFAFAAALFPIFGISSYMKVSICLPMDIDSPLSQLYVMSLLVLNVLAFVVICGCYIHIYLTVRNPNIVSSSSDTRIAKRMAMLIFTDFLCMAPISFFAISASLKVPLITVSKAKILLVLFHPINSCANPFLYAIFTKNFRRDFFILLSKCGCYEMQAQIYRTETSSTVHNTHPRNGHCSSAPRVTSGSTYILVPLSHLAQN
# human FSH receptor [2] = target: T1, human FSH receptor; assay: as above; type: cell-based; settings: dose-response format in presence of EC50 of purified human FSH; * n=3, ** n=2 averages
# Summary of the method: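 CHO-K1 cells stably expressing the recombinant human FSH receptor and a luciferase reporter controlled by 6 cAMP response elements were seeded at 50,000 cells/100 μl/well in 96-well white opaque plates. Antagonists were tested in dose-response against the EC50 of purified human FSH for 4 hours at 37° C, and luciferase chemiluminescence was read with a LucScreen kit.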
# hFSH-R = target: T2, hFSH-R (Homo sapiens, UniProt P23945); assay: cAMP accumulation (RIA) in CHO-3D2 cells (hFSH-R), hFSH-induced; type: cell-based; settings: inhibition of cAMP accumulation induced by hFSH at EC20, CHO-3D2 cells
# T2 construct: expressed in transfected cells; host or cells: CHO-3D2 cells (CHO-K1 parental line)
# T2 sequence (P23945 18-695): T1 sequence (P23945 18-695)
# [3] = 2-dose format, test concentration in parentheses = 30 μM, percent inhibition of response to EC50 of FSH, read-out: CRE % inhibition
Structure (SMILES),inhibition at 30 µM (human FSH receptor [1]; [3]) [%],inhibition at 30 µM (human FSH receptor [1]; read-out: CRE % inhibition (μM)) [%],IC50 (human FSH receptor [2]) [nM],IC50 (hFSH-R) [nM],melting point
O=C(NCc1cccnc1)c1ccc2n1Cc1ccccc1N(C(=O)c1ccc([N+](=O)[O-])cc1)C2 [Example 99],35,–,–,–,–
Cc1cc(C(=O)N2Cc3ccc(C(=O)NCc4cccnc4)n3Cc3ccccc32)ccc1-c1c(C)cccc1C [Example 10],25,–,–,–,–
O=C(NCc1cccnc1)c1ccc2n1Cc1ccccc1N(C(=O)c1cnccn1)C2 [Example 123],41,–,–,–,–
COc1cccc(CNc2ccc(C(=O)N3Cc4ccc(C(=O)NCc5cccnc5)n4Cc4ccccc43)cn2)c1 [Example 129],16,–,–,–,–
O=C(NCc1cccnc1)c1ccc2n1Cc1ccccc1N(C(=O)c1ccc(N3CCCCC3)nc1)C2 [Example 125],–,31,–,–,–
O=C(NCc1cccnc1)c1ccc2n1Cc1ccccc1N(C(=O)c1ccc(NCCCc3ccccc3)nc1)C2 [Example 127],9,–,–,–,–
O=C(NCc1cccnc1)c1ccc2n1Cc1ccccc1N(C(=O)c1ccc(OCc3ccccc3)nc1)C2 [Example 134],4,–,–,–,–
"O=C(NCc1cccnc1)c1ccc2n1Cc1ccccc1N(C(=O)C1CCCCC1)C2 [Example 149, 10-(CYCLOHEXYLCARBONYL)-N-(PYRIDIN-3-YLMETHYL)-10,11-DIHYDRO-5H-PYRROLO[2,1-C][1,4] BENZODIAZEPINE-3-CARBOXAMIDE]",8,–,–,–,–
CN(Cc1ccccc1)c1ccc(C(=O)N2Cc3ccc(C(=O)NCc4cccnc4)n3Cc3ccccc32)cn1 [Example 130],26,–,–,–,–
O=C(NCc1cccnc1)c1ccc2n1Cc1ccccc1N(C(=O)c1ccc(NCCO)nc1)C2 [Example 132],26,–,–,–,–
O=C(NCc1cccnc1)c1ccc2n1Cc1ccccc1N(C(=O)CSc1ccc(Br)cc1)C2 [Example 141],32,–,–,–,–
O=C(NCc1cccnc1)c1ccc2n1Cc1ccccc1N(C(=O)COc1ccccc1)C2 [Example 136],41,–,–,–,–
O=C(NCc1cccnc1)c1ccc2n1Cc1ccccc1N(S(=O)(=O)c1ccc(-c3ccccc3Cl)cc1)C2 [Example 72],6.61,–,–,–,–
O=C(NCc1cccnc1)c1ccc2n1Cc1ccccc1N(C(=O)c1ccc(N3CCCCC3)cc1)C2 [Example 113],–,–,8840,800,196 to 197 °C (dec.)
N#CCc1ccccc1-c1ccc(C(=O)N2Cc3ccc(C(=O)NCc4cccnc4)n3Cc3ccccc32)cc1 [Example 17],–,–,290,130,105 to 108 °C
Cc1ccccc1C(=O)N1Cc2ccc(C(=O)NCc3cccnc3)n2Cc2ccccc21 [Example 94],17,–,–,–,–
N#Cc1ccc(C(=O)N2Cc3ccc(C(=O)NCc4cccnc4)n3Cc3ccccc32)cc1 [Example 90],13,–,–,–,–
O=C(NCc1cccnc1)c1ccc2n1Cc1ccccc1N(C(=O)c1ccc(-c3ccccc3CO)cc1)C2 [Example 59],–,–,100,60,119 to 121 °C
"CC(O)c1ccccc1-c1ccc(C(=O)N2Cc3ccc(C(=O)NCc4ccc[n+]([O-])c4)n3Cc3ccccc32)cc1 (centres unmarked) [Example 55, 10-{[2′-(1-HYDROXYETHYL)-1,1′-BIPHENYL-4-YL]CARBONYL}-N-[(1-OXIDOPYRIDIN-3-YL)METHYL]-10,11-DIHYDRO-5H-PYRROLO[2,1-C][1,4]BENZODIAZEPINE-3-CARBOXAMIDE]",–,–,1050,620,213 to 215 °C

Structure (SMILES),inhibition at 30 µM (human FSH receptor [1]; [3]) [%],inhibition at 30 µM (human FSH receptor [1]; read-out: CRE % inhibition (μM)) [%],IC50 (human FSH receptor [2]) [nM],IC50 (hFSH-R) [nM],melting point
Cc1cc(C(=O)N2Cc3ccc(C(=O)NCc4cccnc4)n3Cc3ccccc32)ccc1-c1cccc(Cl)c1 [Example 23],36,–,–,–,–
O=C(NCc1cccnc1)c1ccc2n1Cc1ccccc1N(C(=O)c1ccc(-c3ncccn3)cc1)C2 [Example 105],–,–,2480,200,234 to 236 °C
Cc1cc(C(=O)N2Cc3ccc(C(=O)NCc4cccnc4)n3Cc3ccccc32)ccc1I [Example 74],–,–,10500,3100,176 to 177 °C
Cc1cc(C(=O)N2Cc3ccc(C(=O)NCc4cccnc4)n3Cc3ccccc32)ccc1-c1ccccc1 [Example 57],–,–,2120,700,108 to 112 °C
NC(Cc1ccccc1-c1ccc(C(=O)N2Cc3ccc(C(=O)NCc4cccnc4)n3Cc3ccccc32)cc1)=NO [Example 18],–,–,41,70,131 to 134 °C
CC(=O)c1ccccc1-c1ccc(C(=O)N2Cc3ccc(C(=O)NCc4cccnc4)n3Cc3ccccc32)cc1C [Example 29],–,–,900,400,171 to 172 °C
O=C(NCc1cccnc1)c1ccc2n1Cc1ccccc1N(C(=O)c1ccc(Cl)cc1)C2 [Example 91],37,–,–,–,–
COc1ccccc1-c1ccc(C(=O)N2Cc3ccc(C(=O)NCc4cccnc4)n3Cc3ccccc32)cc1 [Example 8],–,–,540,500,123 to 127 °C
O=C(NCc1cccnc1)c1ccc2n1Cc1ccccc1N(C(=O)c1ccc(-c3ccccc3CN3CCOCC3)cc1)C2 [Example 43],–,–,257,140,191 to 194 °C
COc1ccccc1-c1ccc(C(=O)N2Cc3ccc(C(=O)NCc4cccnc4)n3Cc3ccccc32)cc1C [Example 47],–,–,650,200,119 to 124 °C
Cc1ccccc1-c1ccc(C(=O)N2Cc3ccc(C(=O)NCc4cccnc4)n3Cc3ccccc32)cc1C [Example 3],–,–,920,80,148 to 150 °C
O=C(NCc1cccnc1)c1ccc2n1Cc1ccccc1N(C(=O)c1ccc(-c3ccccc3/C=N/O)cc1)C2 [Example 62],–,–,1060,550,165 to 167 °C
"COc1ccccc1-c1ccc(C(=O)N2Cc3ccc(C(=O)NCc4cncc(Br)c4)n3Cc3ccccc32)cc1 [Example 6, N-[(5-BROMOPYRIDIN-3-YL)METHYLL]-10-[(2′-METHOXY-1,1′-BIPHENYL-4-YL)CARBONYL]-10,11-DIHYDRO-5H-PYRROLO[2,1-C][1,4]BENZODIAZEPINE-3-CARBOXAMIDE]",–,–,8900,5400,180 to 184 °C
COc1cccc(-c2ccc(C(=O)N3Cc4ccc(C(=O)NCc5cccnc5)n4Cc4ccccc43)cc2C)c1 [Example 70],–,–,5600,2400,176 to 177 °C
CS(=O)(=O)c1ccccc1-c1ccc(C(=O)N2Cc3ccc(C(=O)NCc4cccnc4)n3Cc3ccccc32)cc1 [Example 15],–,–,1100,370,153 to 156 °C
CCOc1ccccc1-c1ccc(C(=O)N2Cc3ccc(C(=O)NCc4cccnc4)n3Cc3ccccc32)cc1C [Example 48],–,–,1600,300,139 to 143 °C
COc1cc(C(=O)N2Cc3ccc(C(=O)NCc4cccnc4)n3Cc3ccccc32)ccc1-c1ccccc1C [Example 1],–,–,1000,200,165 to 167 °C
O=C(NCc1cccnc1)c1ccc2n1Cc1ccccc1N(C(=O)c1ccc(-c3cccnc3)cc1)C2 [Example 108],–,–,9530,1800,120 to 125 °C
CN(C)Cc1ccccc1-c1ccc(C(=O)N2Cc3ccc(C(=O)NCc4cccnc4)n3Cc3ccccc32)cc1 [Example 45],–,–,3580,780,95 to 104 °C
